The values that follow come from patent US20040074447A1, “Methods of reducing incidence of stillborn pigs by using progesterone receptor antagonists” (priority 2002, published 2004).

“And” between values parts separate entries of the source, which are not always exact repeats. Equal values may be shown once. “Also recorded” adds a separate entry of the source. Marks after values point to notes of the source that are not given here.

In this series the test system is pregnant crossbred female swine. The series is described as follows: Example 2: induction of farrowing in pregnant gilts, oral CP161,258 (two doses or single dose) or intramuscular porcine relaxin. The format is in vivo. The note with it: for effects on time to birth of the first pig, number born alive, or stillborns: 1200 U porcine relaxin IM on day 113. The procedure: Animals. […] This BW was used to calculate the amount of test article to administer (T2 and T3).
Randomization of animals. Animals were ranked according to expected farrowing date and then randomly assigned to treatment within blocks of 4 animals each.
Test article administration. […] For treatment groups T2 and T3, test article was diluted (a suspension) to a concentration of 25 mg/ml in 50% propylene glycol and stored refrigerated (2-8° C.).
For treatment groups T2 and T3, animals were snared and test article was administered orally using a 60 ml syringe. […] One container of approximately 440 ml was mixed and used within each week of the 3 wk study. Each animal assigned to T2 or T3 also received approximately 30 ml of tap water to insure that test article was swallowed.
Porcine relaxin was diluted to a concentration of 1200 U/ml in sterile physiological saline on the first day of use. Diluted porcine relaxin was stored in a locked refrigerator and removed only when injections took place. Relaxin (1 ml-T4) was administered intramuscularly in the lower part of the ham of either leg with an 18-gauge, 1.5″ long needle attached to a 3 ml syringe.
Administration of test articles occurred between 7:30 am and 8:30 am on almost all days of the study.
Piglets. Response variables measured in this study were: hours from the 1st treatment to the birth of the 1st pig, number of piglets that were alive at birth (born alive), stillborn (normal appearance term piglet, but dead at time of birth), and mummies (smaller than littermates, decayed at birth). Animals were not processed (no iron shots, no clipping of needle teeth, no individual identification), but umbilical cords were clipped to […]. length if animals could not be euthanized within 2 days after birth.
Data/Analyses. […] Data were analyzed using a mixed model analysis with block as a random effect and treatment as a fixed effect (proc mixed, SAS).

[1] abbreviates: T4: 1200 U pRelaxin intramuscular day 113, counted from (day 113), mean ± SD.
[2] abbreviates: T4: 1200 U pRelaxin intramuscular day 113, mean.
The mark [3] stands for this setting: Treatment 4: 1200 IU Relaxin intramuscular day 113, individual animals.

Take Porcine relaxin: the “effects on time to birth of the first pig, number born alive, or stillborns” value was “not effective”. Further, the “effects on time to birth of the first pig, number born alive, or stillborns” value (listed as porcine relaxin) is listed as “did not have beneficial effects”. In addition, under setting [1], the “Hr, Dose d 112 To 1st pig ± SD” value is reported as 56 ± 26 (13) Hr and the “Hr, Dose d 113 To 1st pig ± SD” value is reported as 56 ± 26^d (13) Hr. Under setting [2], the “Piglet data: Born alive” value is on record as 6.4 (12), the “Piglet data: Mummies” value is listed as 0.3 (12) and the “Piglet data: Stillborn” value is listed as 1.6 (12). Further, under “T4 Relaxin, individual animals”, the “Reason (animals with incomplete data)” value is “Dystocia (born alive, stillborns, mummy count; also recorded: Dystocia-(born alive, stillborns, mummy count”. Further, under setting [3], the “Born Alive” value was 6 (3×) and 3 and 8 and 4 (2×) and 9 (2×) and 1 and 14 and 7; the “Hr, 1st treatment to 1st pig” value is 10.9 h and 25.3 h and 34.2 h and 47.4 h and 48.5 h and 49.2 h and 49.7 h and 51 h and 69.9 h and 74.9 h and 77.2 h and 82.4 h and 106.3 h; the Mummies is 2 and 0 (10×) and 1; the Still-born was 5 and 0 (2×) and 1 (4×) and 2 (5×).
